Measured values from ChEMBL document CHEMBL1134898, “Synthesis and biological evaluation of novel D-2'-azido-2',3'-dideoxyarabinofuranosyl-4'-thiopyrimidines and purines” (Bioorg Med Chem Lett, 2002).
Converted amounts (≈) assume the structure as drawn.

Columns and labels:
Human alphaherpesvirus 1 = experiment: Compound was tested for antiviral activity against HSV-1; type: functional, organism-based
Human alphaherpesvirus 2 = experiment: Compound was tested for antiviral activity against HSV-2; type: functional, organism-based
MT4 [1] = experiment: Cytotoxicity indicative of 50% survival concentration in virus-uninfected MT-4 cells.; type: functional; settings: Homo sapiens
MT4 [2] = experiment: Compound was tested for antiviral activity indicative of 50% cytopathic concentration in virus (HIV-1) infected MT-4 cells.; type: functional, cell-based; settings: Homo sapiens
MT4 [3] = experiment: Cytotoxicity indicative of 50% survival concentration in virus -uninfected MT-4 cells.; type: functional; settings: Homo sapiens
MT4 [4] = experiment: Cytotoxicity indicative of 50% survival concentration in HSV-1-uninfected MT-4 cells.; type: functional; settings: Homo sapiens
MT4 [5] = experiment: Cytotoxicity indicative of 50% survival concentration in HSV-2-uninfected MT-4 cells.; type: functional; settings: Homo sapiens

EC50 (Human alphaherpesvirus 1) | EC50 (Human alphaherpesvirus 2) | Structure (SMILES) | CC50 (MT4 [1]) | EC50 (MT4 [2]) | CC50 (MT4 [3]) | CC50 (MT4 [4]) | CC50 (MT4 [5])
> 100 µg/mL | > 100 µg/mL | Cc1cn([C@H]2S[C@H](CO)C[C@@H]2N=[N+]=[N-])c(=O)[nH]c1=O | 63.5 µg/mL (≈ 224 µM) | > 63.5 µg/mL | – | – | –
> 100 µg/mL | > 100 µg/mL | [N-]=[N+]=N[C@H]1C[C@@H](CO)S[C@@H]1n1cnc2c(N)ncnc21 | 17.3 µg/mL (≈ 59.2 µM) | > 17.3 µg/mL | – | – | –
> 100 µg/mL | > 100 µg/mL | Cc1cn([C@@H]2S[C@H](CO)C[C@@H]2N=[N+]=[N-])c(=O)[nH]c1=O | 56.1 µg/mL (≈ 198 µM) | > 56.5 µg/mL | – | – | –
> 100 µg/mL | > 100 µg/mL | [N-]=[N+]=N[C@H]1C[C@@H](CO)S[C@H]1n1cnc2c(N)ncnc21 | 66.6 µg/mL (≈ 228 µM) | > 66.6 µg/mL | – | – | –
0.13 µg/mL (≈ 0.577 µM) | 0.88 µg/mL (≈ 3.91 µM) | Nc1nc2c(ncn2COCCO)c(=O)[nH]1 [ACYCLOVIR] | – | – | – | > 76.6 µg/mL | > 11.4 µg/mL
> 100 µg/mL | > 100 µg/mL | CNc1ncnc2c1ncn2[C@H]1S[C@H](CO)C[C@@H]1N=[N+]=[N-] | 61.5 µg/mL (≈ 201 µM) | > 61.5 µg/mL | – | – | –

More lines, now with the values behind:

Structure (SMILES) | EC50 (Human alphaherpesvirus 1) | EC50 (Human alphaherpesvirus 2) | CC50 (MT4 [1]) | EC50 (MT4 [2]) | CC50 (MT4 [3]) | CC50 (MT4 [4]) | CC50 (MT4 [5])
[N-]=[N+]=N[C@H]1C[C@@H](CO)S[C@H]1n1ccc(N)nc1=O | > 100 µg/mL | > 100 µg/mL | – | > 41.7 µg/mL | 41.7 µg/mL (≈ 155 µM) | – | –
CNc1ncnc2c1ncn2[C@@H]1SC(CO)C[C@@H]1N=[N+]=[N-] (single isomer, unassigned) | > 100 µg/mL | > 100 µg/mL | 48.1 µg/mL (≈ 157 µM) | > 48.1 µg/mL | – | – | –
[N-]=[N+]=NC1C[C@@H](CO)S[C@@H]1n1ccc(N)nc1=O (stereo not given in full) | > 100 µg/mL | > 100 µg/mL | > 100 µg/mL | > 100 µg/mL | – | – | –
Cc1cn([C@H]2C[C@H](N=[N+]=[N-])[C@@H](CO)O2)c(=O)[nH]c1=O [ZIDOVUDINE] | 0.52 µg/mL (≈ 1.95 µM) | > 100 µg/mL | 0.52 µg/mL (≈ 1.95 µM) | 0.0005 µg/mL (≈ 0.00187 µM) | – | – | –
